One experiment concerns the target T1, human FPR2 (Homo sapiens, UniProt P25090).
T1 sequence (P25090 1-351): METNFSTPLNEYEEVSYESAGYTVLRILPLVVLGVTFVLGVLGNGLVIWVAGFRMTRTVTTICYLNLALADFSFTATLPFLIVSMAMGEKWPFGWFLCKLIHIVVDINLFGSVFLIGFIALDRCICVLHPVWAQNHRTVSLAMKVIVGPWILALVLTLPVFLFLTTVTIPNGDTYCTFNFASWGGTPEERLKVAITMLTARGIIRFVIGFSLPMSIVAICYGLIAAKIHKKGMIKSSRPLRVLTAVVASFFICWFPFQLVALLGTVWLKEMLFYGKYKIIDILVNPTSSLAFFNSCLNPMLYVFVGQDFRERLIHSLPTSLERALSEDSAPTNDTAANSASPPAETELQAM
As to the kind of experiment: FPR2 cyclic adenosine monophosphate (cAMP) assay. The format is cell-based. The settings on record: CHO cells overexpressing human FPR2; forskolin 5 μM; inhibition of cAMP production; HTRF; read-out: hFPR2 cAMP2 EC50. The method, boiled down:
(§1)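 CHO cells overexpressing human FPR1 (4,000/well) or FPR2 (2,000/well) were incubated 30 min at room temperature with compound (0.020 nM to 100 μM, 1% DMSO), IBMX 200 μM, and forskolin at 10 μM (FPR1) or 5 μM (FPR2), all final. HTRF cAMP read-out; inhibition fitted by 4-parameter logistic equation.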
Background: Cyclic AMP is a second messenger, typically raised through Gs and lowered through Gi signalling.

The target of a further experiment is T2, human FPR1 (Homo sapiens, UniProt P21462).
T2 sequence (P21462 1-350): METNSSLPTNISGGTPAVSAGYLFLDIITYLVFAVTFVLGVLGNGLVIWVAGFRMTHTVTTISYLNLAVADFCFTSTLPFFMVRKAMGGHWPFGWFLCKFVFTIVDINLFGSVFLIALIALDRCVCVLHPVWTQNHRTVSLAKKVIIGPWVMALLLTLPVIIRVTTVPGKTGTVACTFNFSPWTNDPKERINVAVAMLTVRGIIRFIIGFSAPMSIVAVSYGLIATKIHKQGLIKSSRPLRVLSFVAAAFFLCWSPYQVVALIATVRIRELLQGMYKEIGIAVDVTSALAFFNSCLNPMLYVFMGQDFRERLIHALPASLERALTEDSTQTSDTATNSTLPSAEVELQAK
As to the kind of experiment: FPR1 cyclic adenosine monophosphate (cAMP) assay. It is filed as cell-based. To be noted: CHO cells overexpressing human FPR1; forskolin 10 μM; inhibition of cAMP production; HTRF; read-out: hFPR1 cAMP2 EC50. The method, boiled down:
as §1

SMILES strings stand for the structures. A value given as a limit tells only on which side of the number the result lay.

From US12577206B2 (BRISTOL-MYERS SQUIBB COMPANY, priority 2020, dated 2026) come the findings set out here.

As usually defined, the EC50 is the concentration that produces a half-maximal response. `COc1cc(F)c(-c2c(NC(=O)c3ccc(OC(F)F)cc3)c(=O)n(-c3nc(C(C)(C)O)ccc3C(F)(F)F)n2C)c(F)c1` [Example 275, N-[5-(2,6-difluoro-4-methoxyphenyl)-2-[6-(2-hydroxypropan-2-yl)-3-(trifluoromethyl)pyridin-2-yl]-1-methyl-3-oxo-2,3-dihydro-1H-pyrazol-4-yl]-4-(difluoromethoxy)benzamide]: the EC50 is 5 nM on human FPR2 and greater than 10000 nM on human FPR1.
Take `COc1cc(F)c(-c2c(NC(=O)c3ccc(OC(F)F)cc3)c(=O)n(-c3ncccc3N(C)C)n2C)c(F)c1` [Example 142, N-[5-(2,6-difluoro-4-methoxyphenyl)-2-[3-(dimethylamino)pyridin-2-yl]-1-methyl-3-oxo-2,3-dihydro-1H-pyrazol-4-yl]-4-(difluoromethoxy)benzamide]: the 50% effective concentration (EC50) on human FPR2 stood at 17 nM; at human FPR1, 3100 nM.
With `COc1cc(F)c(-c2c(NC(=O)c3ccc(OC(F)F)cc3)c(=O)n(Cc3nnc(C(C)C)o3)n2C)c(F)c1` [Example 57, N-[5-(2,6-difluoro-4-methoxyphenyl)-1-methyl-3-oxo-2-{[5-(propan-2-yl)-1,3,4-oxadiazol-2-yl]methyl}-2,3-dihydro-1H-pyrazol-4-yl]-4-(difluoromethoxy)benzamide], the concentration for a half-maximal effect (EC50) turned out to be 150 nM on human FPR2 and 380 nM at human FPR1.
For `COc1cc(F)c(-c2c(NC(=O)c3ccc(OC(F)F)cc3)c(=O)n(-c3cccc(C4(O)CCC4)n3)n2C)c(F)c1` [Example 87, N-(5-(2,6-difluoro-4-methoxyphenyl)-2-(6-(1-hydroxycyclobutyl)pyridin-2-yl)-1-methyl-3-oxo-2,3-dihydro-1H-pyrazol-4-yl)-4-(difluoromethoxy)benzamide], in that order: 4 nM and 780 nM.
For `COc1cc(F)c(-c2c(NC(=O)c3ccc(OC(F)F)cc3)c(=O)n(-c3cccc(N4CCN(CC5CC5)CC4)n3)n2C)c(F)c1` [Example 207, N-(2-{6-[4-(cyclopropylmethyl)piperazin-1-yl]pyridin-2-yl}-5-(2,6-difluoro-4-methoxyphenyl)-1-methyl-3-oxo-2,3-dihydro-1H-pyrazol-4-yl)-4-(difluoromethoxy)benzamide], in that order: 3 nM and 140 nM.
For `COc1cc(-n2c(=O)c(NC(=O)c3ccc(OC(F)F)cc3)c(-c3c(F)cc(OC)cc3F)n2C)cc(C(F)(F)F)c1` [Example 117, N-[5-(2,6-difluoro-4-methoxyphenyl)-2-[3-methoxy-5-(trifluoromethyl)phenyl]-1-methyl-3-oxo-2,3-dihydro-1H-pyrazol-4-yl]-4-(difluoromethoxy)benzamide], in that order: 8 nM and greater than 10000 nM.
For `COc1cc(F)c(-c2c(NC(=O)c3ccc(OC(F)F)cc3)c(=O)n(-c3nc(N[C@H](C)C4CC4)ccc3C(F)(F)F)n2C)c(F)c1` [Example 243, N-[2-(6-{[(1R)-1-cyclopropylethyl]amino}-3-(trifluoromethyl)pyridin-2-yl)-5-(2,6-difluoro-4-methoxyphenyl)-1-methyl-3-oxo-2,3-dihydro-1H-pyrazol-4-yl]-4-(difluoromethoxy)benzamide], the EC50 is 6 nM at human FPR2 and greater than 10000 nM on human FPR1.
For the molecule `COc1cc(F)c(-c2c(NC(=O)c3ccc(C4CC4)cc3)c(=O)n(-c3ccccc3)n2C)c(F)c1` [Example 16, 4-cyclopropyl-N-[5-(2,6-difluoro-4-methoxyphenyl)-1-methyl-3-oxo-2-phenyl-2,3-dihydro-1H-pyrazol-4-yl]benzamide], the concentration giving a half-maximal response (EC50) is 30 nM at human FPR2 and greater than 10000 nM on human FPR1.
`COc1cc(O)c(-c2c(NC(=O)c3ccc(OC(F)F)cc3)c(=O)n(-c3nc(Cl)ccc3Cl)n2C)c(F)c1` [Example 296, N-[2-(3,6-dichloropyridin-2-yl)-5-(2-fluoro-6-hydroxy-4-methoxyphenyl)-1-methyl-3-oxo-2,3-dihydro-1H-pyrazol-4-yl]-4-(difluoromethoxy)benzamide]: the EC50 is 33 nM on human FPR2 and greater than 10000 nM at human FPR1.
Regarding `COc1cc(F)c(-c2c(NC(=O)c3ccc(OC(F)F)cc3)c(=O)n(-c3cc(C)cc(OCC4CCOC4)n3)n2C)c(F)c1` (centres unmarked) [Example 352, N-(5-(2,6-Difluoro-4-methoxyphenyl)-1-methyl-2-(4-methyl-6-((tetrahydrofuran-3-yl)methoxy)pyridin-2-yl)-3-oxo-2,3-dihydro-1H-pyrazol-4-yl)-4-(difluoromethoxy)benzamide], the EC50 on human FPR2 was 6 nM; on human FPR1, greater than 10000 nM.
Regarding `COc1cc(F)c(-c2c(NC(=O)c3ccc(OC(F)F)cc3)c(=O)n(-c3c(F)cccc3F)n2C)c(F)c1` [Example 27, N-[5-(2,6-difluoro-4-methoxyphenyl)-2-(2,6-difluorophenyl)-1-methyl-3-oxo-2,3-dihydro-1H-pyrazol-4-yl]-4-(difluoromethoxy)benzamide], the concentration for a half-maximal effect (EC50) is 10 nM on human FPR2 and greater than 10000 nM on human FPR1.
As to `COc1cc(F)c(-c2c(NC(=O)c3ccc(OC(F)F)cc3)c(=O)n(-c3nc(N(C)CC(C)(C)O)ccc3C(F)(F)F)n2C)c(F)c1` [Example 261, N-[5-(2,6-difluoro-4-methoxyphenyl)-2-{6-[(2-hydroxy-2-methylpropyl)(methyl)amino]-3-(trifluoromethyl)pyridin-2-yl}-1-methyl-3-oxo-2,3-dihydro-1H-pyrazol-4-yl]-4-(difluoromethoxy)benzamide], the EC50 on human FPR2 is 2 nM; at human FPR1, greater than 5000 nM.
In the case of `Cn1c(-c2ccc(Cl)cc2)c(NC(=O)c2ccc(OC(F)F)cc2)c(=O)n1-c1ncccc1C(F)(F)F` [Example 249, N-[5-(4-chlorophenyl)-1-methyl-3-oxo-2-[3-(trifluoromethyl)pyridin-2-yl]-2,3-dihydro-1H-pyrazol-4-yl]-4-(difluoromethoxy)benzamide], the 50% effective concentration (EC50) on human FPR2 turned out to be 38 nM; at human FPR1 it was 510 nM.
With `COc1cc(F)c(-c2c(NC(=O)c3ccc(OC(F)F)cc3)c(=O)n(-c3ccc4ccccc4n3)n2C)c(F)c1` [Example 60, N-[5-(2,6-difluoro-4-methoxyphenyl)-1-methyl-3-oxo-2-(quinolin-2-yl)-2,3-dihydro-1H-pyrazol-4-yl]-4-(difluoromethoxy)benzamide], the EC50 at human FPR2 worked out at 3 nM; on human FPR1, 210 nM.
Taken in the same sequence, the figures for `COc1cc(F)c(-c2c(NC(=O)c3ccc(OC(F)F)cc3)c(=O)n(-c3nc(NCC(C)(C)C(N)=O)ccc3C(F)(F)F)n2C)c(F)c1` [Example 279, N-(2-{6-[(2-carbamoyl-2,2-dimethylethyl)amino]-3-(trifluoromethyl)pyridin-2-yl}-5-(2,6-difluoro-4-methoxyphenyl)-1-methyl-3-oxo-2,3-dihydro-1H-pyrazol-4-yl)-4-(difluoromethoxy)benzamide] were 2 nM and greater than 10000 nM.
Take `COc1cc(F)c(-c2c(NC(=O)c3ccc(OC(F)F)cc3)c(=O)n(-c3cccc(N4CC(C)(C)C4)n3)n2C)c(F)c1` [Example 218, N-[5-(2,6-difluoro-4-methoxyphenyl)-2-[6-(3,3-dimethylazetidin-1-yl)pyridin-2-yl]-1-methyl-3-oxo-2,3-dihydro-1H-pyrazol-4-yl]-4-(difluoromethoxy)benzamide]: the EC50 was 21 nM on human FPR2 and 1500 nM at human FPR1.
